{"source": "paper PMC12281424", "about": "“A Rac-specific competitive inhibitor of guanine nucleotide binding reduces metastasis in triple-negative breast cancer” (Cell Reports Medicine, 2025)", "key": {"RAC1": {"target": "RAC1 (Homo sapiens, UniProt P63000)", "experiment": "Surface plasmon resonance", "format": "binding", "set-up": "purchased Cytoskeleton RH01", "procedure": "(§1) SPR immobilization was performed at 25°C. RAC1, RHOA and CDC42 purified proteins (respectively […] and CD01, Cytoskeleton) were diluted to 5 μg/mL in Na^+ acetate buffer (pH 5.0) and injected into sensor chip CM5 (GE Healthcare) in a Biacore T200 (GE Healthcare) that was activated with NHS/EDC buffer. Approximately 5,000 response units of the purified protein were immobilized on the biosensor chip. Biosensor chips were blocked by an injection of 1 mM ethanolamine (pH 8.5). SPR analysis was performed at 25°C in HBSEP running buffer (5% DMSO) with or without EDTA (20 mM). A41 compound was injected over the RAC1, RHOA or CDC42 functionalized surface in concentration range from 0 to 25μM. Association and dissociation phases were monitored during 60s and 300s, respectively."}, "DDR2(h)": {"target": "DDR2(h) (Homo sapiens, UniProt Q16832)", "experiment": "Kinase Profiler", "format": "biochemical", "description": "(§2) Blood cell counts, kinase profiler, safety screen, bacterial cytotoxicity, Ames, micronucleus assays were performed by the company Eurofins (France). The kinase profiler was performed by the company Eurofins (Discovery, Panlab and Cerep)."}, "LTK(h)": {"target": "LTK(h) (Homo sapiens, UniProt P29376)", "experiment": "Kinase Profiler", "format": "biochemical", "description": "(§3) The kinase profiler was performed by the company Eurofins (Discovery, Panlab and Cerep)."}, "Ret(h)": {"target": "Ret(h) (Homo sapiens, UniProt P07949)", "experiment": "Kinase Profiler", "format": "biochemical", "description": "as §3"}, "STK33(h)": {"target": "STK33(h) (Homo sapiens, UniProt Q9BYT3)", "experiment": "Kinase Profiler", "format": "biochemical", "description": "as §3"}, "CLK2(h)": {"target": "CLK2(h) (Homo sapiens, UniProt P49760)", "experiment": "Kinase Profiler", "format": "biochemical", "description": "as §3"}, "TTK(h)": {"target": "TTK(h) (Homo sapiens, UniProt P33981)", "experiment": "Kinase Profiler", "format": "biochemical", "description": "as §3"}, "NUAK2(h)": {"target": "NUAK2(h) (Homo sapiens, UniProt Q9H093)", "experiment": "Kinase Profiler", "format": "biochemical", "description": "as §3"}, "NLK(h)": {"target": "NLK(h) (Homo sapiens, UniProt Q9UBE8)", "experiment": "Kinase Profiler", "format": "biochemical", "description": "as §3"}, "Pyk2(h)": {"target": "Pyk2(h) (Homo sapiens, UniProt Q14289)", "experiment": "Kinase Profiler", "format": "biochemical", "description": "as §3"}, "PKCζ(h)": {"target": "PKCζ(h) (Homo sapiens, UniProt Q05513)", "experiment": "Kinase Profiler", "format": "biochemical", "description": "as §3"}, "Rsk1(h)": {"target": "Rsk1(h) (Homo sapiens, UniProt Q15418)", "experiment": "Kinase Profiler", "format": "biochemical", "description": "as §3"}, "RHOA": {"target": "RHOA (Homo sapiens, UniProt P61586)", "sequence (P61586 whole entry)": "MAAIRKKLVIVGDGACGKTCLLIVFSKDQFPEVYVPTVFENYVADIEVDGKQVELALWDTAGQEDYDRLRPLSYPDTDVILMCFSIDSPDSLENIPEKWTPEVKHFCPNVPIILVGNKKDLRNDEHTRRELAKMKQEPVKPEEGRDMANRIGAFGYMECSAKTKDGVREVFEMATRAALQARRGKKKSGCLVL", "experiment": "Surface plasmon resonance", "format": "binding", "set-up": "purchased Cytoskeleton RC01", "settings": "A41 0 to 25 μM", "procedure": "as §1"}, "CDK17/cyclinY(h)": {"target": "CDK17/cyclinY(h) (Homo sapiens, UniProt Q00537)", "sequence (Q00537 whole entry)": "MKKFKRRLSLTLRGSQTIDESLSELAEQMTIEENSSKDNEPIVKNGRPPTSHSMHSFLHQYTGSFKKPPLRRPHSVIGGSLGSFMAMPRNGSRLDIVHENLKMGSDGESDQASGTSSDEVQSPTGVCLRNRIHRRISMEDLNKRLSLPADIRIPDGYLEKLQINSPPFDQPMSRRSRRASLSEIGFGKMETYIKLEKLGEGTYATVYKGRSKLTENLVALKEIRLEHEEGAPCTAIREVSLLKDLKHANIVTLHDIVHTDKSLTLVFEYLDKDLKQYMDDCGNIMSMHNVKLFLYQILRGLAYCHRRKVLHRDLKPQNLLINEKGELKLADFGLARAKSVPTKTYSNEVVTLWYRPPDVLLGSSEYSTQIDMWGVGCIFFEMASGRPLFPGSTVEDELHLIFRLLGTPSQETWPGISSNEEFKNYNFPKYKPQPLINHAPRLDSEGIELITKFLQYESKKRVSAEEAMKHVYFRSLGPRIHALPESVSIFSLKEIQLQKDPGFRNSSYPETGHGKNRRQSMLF", "sequence (Q8ND76 whole entry partner)": "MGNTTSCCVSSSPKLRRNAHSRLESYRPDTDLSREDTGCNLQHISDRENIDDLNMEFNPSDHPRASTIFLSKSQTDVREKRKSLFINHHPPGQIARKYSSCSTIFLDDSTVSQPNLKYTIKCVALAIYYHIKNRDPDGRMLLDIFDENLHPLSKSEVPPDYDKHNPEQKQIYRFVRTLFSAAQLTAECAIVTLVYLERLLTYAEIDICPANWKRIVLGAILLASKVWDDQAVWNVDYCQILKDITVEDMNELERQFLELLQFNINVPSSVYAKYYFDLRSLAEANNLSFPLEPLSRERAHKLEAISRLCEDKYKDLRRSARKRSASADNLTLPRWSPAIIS", "experiment": "Kinase Profiler", "format": "biochemical", "description": "as §2"}, "IR(h), activated": {"target": "IR(h), activated (Homo sapiens, UniProt P06213)", "sequence (P06213 28-1382)": "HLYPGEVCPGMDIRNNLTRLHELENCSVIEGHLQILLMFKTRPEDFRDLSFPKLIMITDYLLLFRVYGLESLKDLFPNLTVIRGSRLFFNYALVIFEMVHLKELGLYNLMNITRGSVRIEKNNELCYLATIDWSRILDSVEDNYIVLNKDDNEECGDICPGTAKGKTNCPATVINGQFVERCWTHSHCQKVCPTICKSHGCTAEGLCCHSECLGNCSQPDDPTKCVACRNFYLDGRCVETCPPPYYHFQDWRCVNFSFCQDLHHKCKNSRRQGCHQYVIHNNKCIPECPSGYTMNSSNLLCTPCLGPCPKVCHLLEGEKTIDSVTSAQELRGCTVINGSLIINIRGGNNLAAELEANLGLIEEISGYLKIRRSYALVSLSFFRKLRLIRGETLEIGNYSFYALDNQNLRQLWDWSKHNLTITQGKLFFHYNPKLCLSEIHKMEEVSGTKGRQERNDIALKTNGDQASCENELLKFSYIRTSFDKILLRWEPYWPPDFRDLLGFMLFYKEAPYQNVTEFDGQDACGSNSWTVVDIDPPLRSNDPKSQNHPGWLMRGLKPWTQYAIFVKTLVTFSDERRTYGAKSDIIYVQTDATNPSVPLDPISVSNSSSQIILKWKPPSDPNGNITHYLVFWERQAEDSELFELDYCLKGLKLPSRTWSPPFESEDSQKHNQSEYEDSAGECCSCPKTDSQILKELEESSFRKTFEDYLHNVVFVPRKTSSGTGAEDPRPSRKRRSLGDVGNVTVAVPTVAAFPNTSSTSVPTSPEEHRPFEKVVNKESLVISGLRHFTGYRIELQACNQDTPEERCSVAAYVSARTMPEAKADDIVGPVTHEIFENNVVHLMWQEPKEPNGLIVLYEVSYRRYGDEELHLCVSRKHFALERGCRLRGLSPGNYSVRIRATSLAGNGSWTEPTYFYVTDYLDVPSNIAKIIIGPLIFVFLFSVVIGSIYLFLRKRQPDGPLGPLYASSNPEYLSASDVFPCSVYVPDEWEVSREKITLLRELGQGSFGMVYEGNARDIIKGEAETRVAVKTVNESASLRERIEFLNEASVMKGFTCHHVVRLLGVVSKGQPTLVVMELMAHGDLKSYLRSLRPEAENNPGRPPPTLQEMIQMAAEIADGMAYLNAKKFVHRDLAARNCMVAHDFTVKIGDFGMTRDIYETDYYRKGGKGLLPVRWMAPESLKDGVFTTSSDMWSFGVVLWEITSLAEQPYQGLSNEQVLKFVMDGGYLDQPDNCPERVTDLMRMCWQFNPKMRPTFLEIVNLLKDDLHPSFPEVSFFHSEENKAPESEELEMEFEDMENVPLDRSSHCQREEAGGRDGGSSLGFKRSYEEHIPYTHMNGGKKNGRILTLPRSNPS", "experiment": "Kinase Profiler", "format": "biochemical", "description": "as §2"}, "ALK2(h)": {"target": "ALK2(h) (Homo sapiens, UniProt Q04771)", "experiment": "Kinase Profiler", "format": "biochemical", "description": "as §3"}, "[1]": {"target": "Serotonin (5-Hydroxytryptamine) 5-HT2B (Homo sapiens, UniProt P41595)", "experiment": "Safety screen", "format": "binding", "description": "(§4) Blood cell counts, kinase profiler, safety screen, bacterial cytotoxicity, Ames, micronucleus assays were performed by the company Eurofins (France)."}, "DRAK1(h)": {"target": "DRAK1(h) (Homo sapiens, UniProt Q9UEE5)", "experiment": "Kinase Profiler", "format": "biochemical", "description": "as §2"}, "HRI(h)": {"target": "HRI(h) (Homo sapiens, UniProt Q9BQI3)", "experiment": "Kinase Profiler", "format": "biochemical", "description": "as §3"}, "CDK13/cyclinK(h)": {"target": "CDK13/cyclinK(h) (Homo sapiens, UniProt Q14004)", "description": "as §2"}, "Chemokine CXCR2 (IL-8RB)": {"target": "Chemokine CXCR2 (IL-8RB) (Homo sapiens, UniProt P25025)", "sequence (P25025 whole entry)": "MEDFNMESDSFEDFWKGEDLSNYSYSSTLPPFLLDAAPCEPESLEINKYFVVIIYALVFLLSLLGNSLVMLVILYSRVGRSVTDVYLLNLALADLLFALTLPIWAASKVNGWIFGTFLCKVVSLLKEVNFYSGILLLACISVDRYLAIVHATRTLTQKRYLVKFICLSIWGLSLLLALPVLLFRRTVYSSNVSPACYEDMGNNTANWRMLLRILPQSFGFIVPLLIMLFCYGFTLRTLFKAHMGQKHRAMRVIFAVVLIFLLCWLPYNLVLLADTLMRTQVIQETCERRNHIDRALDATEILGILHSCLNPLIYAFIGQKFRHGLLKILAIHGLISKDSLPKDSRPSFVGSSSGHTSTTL", "experiment": "Safety screen", "format": "binding", "description": "as §4"}, "MARK1(h)": {"target": "MARK1(h) (Homo sapiens, UniProt Q9P0L2)", "sequence (Q9P0L2 whole entry)": "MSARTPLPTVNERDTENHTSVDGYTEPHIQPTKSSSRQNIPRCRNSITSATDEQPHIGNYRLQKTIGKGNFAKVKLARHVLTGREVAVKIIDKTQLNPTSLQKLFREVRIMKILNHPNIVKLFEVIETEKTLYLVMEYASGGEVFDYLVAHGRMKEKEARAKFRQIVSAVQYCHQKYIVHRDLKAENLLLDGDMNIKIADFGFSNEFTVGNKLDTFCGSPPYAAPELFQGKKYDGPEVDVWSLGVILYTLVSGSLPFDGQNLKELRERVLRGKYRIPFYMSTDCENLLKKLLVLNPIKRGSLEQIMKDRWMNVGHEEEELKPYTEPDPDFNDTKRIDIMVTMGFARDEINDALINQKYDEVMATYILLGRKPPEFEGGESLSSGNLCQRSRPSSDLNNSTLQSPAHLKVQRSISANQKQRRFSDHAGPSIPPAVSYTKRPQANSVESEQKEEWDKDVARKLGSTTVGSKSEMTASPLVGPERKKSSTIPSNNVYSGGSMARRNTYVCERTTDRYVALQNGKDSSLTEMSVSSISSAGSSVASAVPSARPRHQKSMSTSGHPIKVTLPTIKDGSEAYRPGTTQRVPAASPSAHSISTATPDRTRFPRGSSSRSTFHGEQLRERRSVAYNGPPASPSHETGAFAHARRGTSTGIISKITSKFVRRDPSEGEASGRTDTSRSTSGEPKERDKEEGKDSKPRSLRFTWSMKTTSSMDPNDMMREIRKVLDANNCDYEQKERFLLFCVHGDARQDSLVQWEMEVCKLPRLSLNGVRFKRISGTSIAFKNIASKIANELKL", "experiment": "Kinase Profiler", "format": "biochemical", "description": "as §3"}, "CaMKIγ(h)": {"target": "CaMKIγ(h) (Homo sapiens, UniProt Q96NX5)", "experiment": "Kinase Profiler", "format": "biochemical", "description": "as §3"}, "MYLK2(h)": {"target": "MYLK2(h) (Homo sapiens, UniProt Q9H1R3)", "experiment": "Kinase Profiler", "format": "biochemical", "description": "as §3"}, "PAK2(h)": {"target": "PAK2(h) (Homo sapiens, UniProt Q13177)", "experiment": "Kinase Profiler", "format": "biochemical", "description": "as §2"}, "CDK18/cyclinY(h)": {"target": "CDK18/cyclinY(h) (Homo sapiens, UniProt Q07002)", "experiment": "Kinase Profiler", "format": "biochemical", "description": "as §3"}, "ChaK1(h)": {"target": "ChaK1(h) (Homo sapiens, UniProt Q96QT4)", "experiment": "Kinase Profiler", "format": "biochemical", "description": "as §3"}, "Adrenergic α2B": {"target": "Adrenergic α2B (Homo sapiens, UniProt P18089)", "experiment": "Safety screen", "format": "binding", "description": "as §4"}, "ULK3(h)": {"target": "ULK3(h) (Homo sapiens, UniProt Q6PHR2)", "sequence (Q6PHR2 whole entry)": "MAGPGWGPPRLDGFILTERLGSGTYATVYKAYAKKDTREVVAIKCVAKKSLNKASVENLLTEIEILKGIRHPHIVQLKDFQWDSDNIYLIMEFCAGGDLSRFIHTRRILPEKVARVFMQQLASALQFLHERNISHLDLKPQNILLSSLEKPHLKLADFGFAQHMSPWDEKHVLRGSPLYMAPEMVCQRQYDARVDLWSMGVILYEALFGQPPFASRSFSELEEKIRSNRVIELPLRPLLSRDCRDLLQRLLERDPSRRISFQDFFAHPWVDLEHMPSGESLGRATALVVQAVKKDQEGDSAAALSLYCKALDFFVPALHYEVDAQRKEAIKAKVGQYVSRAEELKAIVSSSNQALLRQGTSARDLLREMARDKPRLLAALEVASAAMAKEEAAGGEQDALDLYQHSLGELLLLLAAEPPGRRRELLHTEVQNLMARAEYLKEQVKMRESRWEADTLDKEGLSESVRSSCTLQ", "experiment": "Kinase Profiler", "format": "biochemical", "description": "as §2"}, "cKit(D816H)(h)": {"target": "cKit(D816H)(h) (Homo sapiens, UniProt P10721, D816H)", "sequence (P10721 26-976 D816H)": "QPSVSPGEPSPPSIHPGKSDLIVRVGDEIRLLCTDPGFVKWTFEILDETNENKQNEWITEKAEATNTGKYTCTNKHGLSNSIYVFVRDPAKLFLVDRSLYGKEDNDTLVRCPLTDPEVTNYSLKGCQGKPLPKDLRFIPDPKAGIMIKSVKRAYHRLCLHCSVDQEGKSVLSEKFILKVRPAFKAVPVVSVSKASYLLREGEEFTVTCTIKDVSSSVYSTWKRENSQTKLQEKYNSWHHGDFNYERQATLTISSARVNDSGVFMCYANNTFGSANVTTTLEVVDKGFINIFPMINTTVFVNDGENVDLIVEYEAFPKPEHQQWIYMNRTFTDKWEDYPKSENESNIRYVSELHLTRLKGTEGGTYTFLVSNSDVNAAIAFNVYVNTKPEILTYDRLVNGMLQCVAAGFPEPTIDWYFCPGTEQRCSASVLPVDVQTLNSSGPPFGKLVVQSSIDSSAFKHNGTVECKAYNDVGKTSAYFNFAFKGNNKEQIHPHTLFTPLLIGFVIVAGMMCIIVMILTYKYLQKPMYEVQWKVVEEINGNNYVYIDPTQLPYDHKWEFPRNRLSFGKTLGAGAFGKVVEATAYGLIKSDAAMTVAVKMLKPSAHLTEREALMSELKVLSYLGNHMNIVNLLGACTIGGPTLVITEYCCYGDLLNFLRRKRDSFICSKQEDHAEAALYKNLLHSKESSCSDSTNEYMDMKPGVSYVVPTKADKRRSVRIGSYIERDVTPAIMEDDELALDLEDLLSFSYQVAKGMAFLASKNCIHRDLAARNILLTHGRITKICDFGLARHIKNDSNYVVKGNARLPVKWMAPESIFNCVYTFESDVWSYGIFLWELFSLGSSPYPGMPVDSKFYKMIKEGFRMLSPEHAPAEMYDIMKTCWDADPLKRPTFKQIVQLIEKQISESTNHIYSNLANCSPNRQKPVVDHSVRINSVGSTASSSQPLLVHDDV", "experiment": "Kinase Profiler", "format": "biochemical", "description": "as §2"}, "TGFBR1(h)": {"target": "TGFBR1(h) (Homo sapiens, UniProt P36897)", "experiment": "Kinase Profiler", "format": "biochemical", "description": "as §2"}, "CaMKIIγ(h)": {"target": "CaMKIIγ(h) (Homo sapiens, UniProt Q13555)", "experiment": "Kinase Profiler", "format": "biochemical", "description": "as §3"}, "MAP4K5(h)": {"target": "MAP4K5(h) (Homo sapiens, UniProt Q9Y4K4)", "experiment": "Kinase Profiler", "format": "biochemical", "description": "as §3"}, "Monoamine Oxidase MAO-B": {"target": "Monoamine Oxidase MAO-B (Homo sapiens, UniProt P27338)", "experiment": "Safety screen", "format": "biochemical", "description": "as §4"}, "ACK1(h)": {"target": "ACK1(h) (Homo sapiens, UniProt Q07912)", "experiment": "Kinase Profiler", "format": "biochemical", "description": "as §3"}, "Itk(h)": {"target": "Itk(h) (Homo sapiens, UniProt Q08881)", "experiment": "Kinase Profiler", "format": "biochemical", "description": "as §3"}}}
{"compound": "COc1ccc(OC)c(NS(=O)(=O)c2ccc(NC(=O)CCSc3ccc(C)cc3)cc2)c1", "note": "[Compound A41]", "values": [{"measurement": "binding to RAC1", "setting": "RAC1; in the presence of 20 mM EDTA", "value": "strongly increased"}, {"measurement": "Kd", "setting": "RAC1; purified RAC1-GDP, without EDTA", "value": 30, "unit": "nM"}, {"measurement": "Activity(%)", "setting": "DDR2(h)", "value": 114, "unit": "%"}, {"measurement": "Activity(%)", "setting": "LTK(h)", "value": 113, "unit": "%"}, {"measurement": "Activity(%)", "setting": "Ret(h)", "value": 104, "unit": "%"}, {"measurement": "Activity(%)", "setting": "STK33(h)", "value": 98, "unit": "%"}, {"measurement": "Activity(%)", "setting": "CLK2(h)", "value": 97, "unit": "%"}, {"measurement": "Activity(%)", "setting": "TTK(h)", "value": 103, "unit": "%"}, {"measurement": "Activity(%)", "setting": "NUAK2(h)", "value": 110, "unit": "%"}, {"measurement": "Activity(%)", "setting": "NLK(h)", "value": 99, "unit": "%"}, {"measurement": "Activity(%)", "setting": "Pyk2(h)", "value": 92, "unit": "%"}, {"measurement": "Activity(%)", "setting": "PKCζ(h)", "value": 97, "unit": "%"}, {"measurement": "Activity(%)", "setting": "Rsk1(h)", "value": 122, "unit": "%"}, {"measurement": "binding", "setting": "RHOA", "value": "No binding was measured"}, {"measurement": "Activity(%)", "setting": "CDK17/cyclinY(h)", "value": 96, "unit": "%"}, {"measurement": "Activity(%)", "setting": "IR(h), activated", "value": 104, "unit": "%"}, {"measurement": "Activity(%)", "setting": "ALK2(h)", "value": 100, "unit": "%"}, {"measurement": "% inh.", "setting": "[1]", "value": 90, "unit": "%"}, {"measurement": "Activity(%)", "setting": "DRAK1(h)", "value": 101, "unit": "%"}, {"measurement": "Activity(%)", "setting": "HRI(h)", "value": 98, "unit": "%"}, {"measurement": "Activity(%)", "setting": "CDK13/cyclinK(h)", "value": 97, "unit": "%"}, {"measurement": "% inh.", "setting": "Chemokine CXCR2 (IL-8RB)", "value": 1, "unit": "%"}, {"measurement": "Activity(%)", "setting": "MARK1(h)", "value": 110, "unit": "%"}, {"measurement": "Activity(%)", "setting": "CaMKIγ(h)", "value": 121, "unit": "%"}, {"measurement": "Activity(%)", "setting": "MYLK2(h)", "value": 103, "unit": "%"}, {"measurement": "Activity(%)", "setting": "PAK2(h)", "value": 110, "unit": "%"}, {"measurement": "Activity(%)", "setting": "CDK18/cyclinY(h)", "value": 101, "unit": "%"}, {"measurement": "Activity(%)", "setting": "ChaK1(h)", "value": 104, "unit": "%"}, {"measurement": "% inh.", "setting": "Adrenergic α2B", "value": 9, "unit": "%"}, {"measurement": "Activity(%)", "setting": "ULK3(h)", "value": 97, "unit": "%"}, {"measurement": "Activity(%)", "setting": "cKit(D816H)(h)", "value": 109, "unit": "%"}, {"measurement": "Activity(%)", "setting": "TGFBR1(h)", "value": 103, "unit": "%"}, {"measurement": "Activity(%)", "setting": "CaMKIIγ(h)", "value": 92, "unit": "%"}, {"measurement": "Activity(%)", "setting": "MAP4K5(h)", "value": 102, "unit": "%"}, {"measurement": "% inh.", "setting": "Monoamine Oxidase MAO-B", "value": 17, "unit": "%"}, {"measurement": "Activity(%)", "setting": "ACK1(h)", "value": 103, "unit": "%"}, {"measurement": "Activity(%)", "setting": "Itk(h)", "value": 78, "unit": "%"}]}
